Data from PubChem BioAssay (NCI).
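Step 1: Grow cells in 96-well plates. Step 2: Expose to compound for 48 hours at 5 concentrations. Step 3: Interpolate endpoints linearly; if unreached, use highest concentration. The concentration for 50% growth inhibition is given as GI50. TGI denotes the concentration required for complete inhibition of growth.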

Experiments:
Test in all cases: NCI tumour cell line growth inhibition, 48 h
UO-31 renal = test system: UO-31 renal
DU-145 prostate = test system: DU-145 prostate
OVCAR-4 ovarian = test system: OVCAR-4 ovarian
A498 renal = test system: A498 renal
COLO 205 colon = test system: COLO 205 colon
HS 578T breast = test system: HS 578T breast
TK-10 renal = test system: TK-10 renal
RPMI-8226 leukemia = test system: RPMI-8226 leukemia
SN12C renal = test system: SN12C renal
MOLT-4 leukemia = test system: MOLT-4 leukemia
MDA-MB-435 = test system: MDA-MB-435
NCI-H522 lung = test system: NCI-H522 lung
A549 NSCLC = test system: A549 NSCLC
SF-539 CNS = test system: SF-539 CNS
LOX IMVI melanoma = test system: LOX IMVI melanoma
ACHN renal = test system: ACHN renal
SK-MEL-2 melanoma = test system: SK-MEL-2 melanoma
K-562 leukemia = test system: K-562 leukemia
HCT-15 colon = test system: HCT-15 colon
KM12 colon = test system: KM12 colon
HOP-92 NSCLC = test system: HOP-92 NSCLC
NCI-H23 lung = test system: NCI-H23 lung
HCC-2998 colon = test system: HCC-2998 colon
SK-OV-3 ovarian = test system: SK-OV-3 ovarian
SNB-75 CNS = test system: SNB-75 CNS
SW-620 colon = test system: SW-620 colon
NCI/ADR-RES ovarian = test system: NCI/ADR-RES ovarian
HOP-62 NSCLC = test system: HOP-62 NSCLC
SK-MEL-5 melanoma = test system: SK-MEL-5 melanoma
786-0 renal = test system: 786-0 renal
UACC-62 melanoma = test system: UACC-62 melanoma
NCI-H226 lung = test system: NCI-H226 lung
MDA-N = test system: MDA-N
MALME-3M melanoma = test system: MALME-3M melanoma
HT29 colon = test system: HT29 colon
EKVX NSCLC = test system: EKVX NSCLC
OVCAR-8 ovarian = test system: OVCAR-8 ovarian
SR leukemia = test system: SR leukemia
U251 CNS = test system: U251 CNS
T-47D breast = test system: T-47D breast
RXF 393 renal = test system: RXF 393 renal
NCI-H460 lung = test system: NCI-H460 lung
MDA-MB-231 breast = test system: MDA-MB-231 breast
CAKI-1 renal = test system: CAKI-1 renal
OVCAR-5 ovarian = test system: OVCAR-5 ovarian
PC-3 prostate = test system: PC-3 prostate
HL-60(TB) leukemia = test system: HL-60(TB) leukemia
SF-268 CNS = test system: SF-268 CNS
HCT-116 colon = test system: HCT-116 colon
UACC-257 melanoma = test system: UACC-257 melanoma
SF-295 CNS = test system: SF-295 CNS
IGROV1 ovarian = test system: IGROV1 ovarian
SK-MEL-28 melanoma = test system: SK-MEL-28 melanoma
SNB-19 CNS = test system: SNB-19 CNS
CCRF-CEM leukemia = test system: CCRF-CEM leukemia
MCF7 breast = test system: MCF7 breast
BT-549 breast = test system: BT-549 breast
M14 melanoma = test system: M14 melanoma
OVCAR-3 ovarian = test system: OVCAR-3 ovarian

SMILES: O=[N+]([O-])c1ccc2nc(Nc3ccccc3)c(Nc3ccccc3)nc2c1
- TGI (UO-31 renal): 2570 nM
- TGI (DU-145 prostate): 4600 nM
- TGI (OVCAR-4 ovarian): 11300 nM
- TGI (A498 renal): 11600 nM
- TGI (COLO 205 colon): 2970 nM
- TGI (HS 578T breast): 8750 nM
- TGI (TK-10 renal): 6840 nM
- TGI (RPMI-8226 leukemia): > 100000 nM
- TGI (SN12C renal): 2670 nM
- TGI (MOLT-4 leukemia): > 100000 nM
- TGI (MDA-MB-435): 4400 nM
- TGI (NCI-H522 lung): 1330 nM
- TGI (A549 NSCLC): 2360 nM
- TGI (SF-539 CNS): 2980 nM
- TGI (LOX IMVI melanoma): 3140 nM
- TGI (ACHN renal): 3110 nM
- TGI (SK-MEL-2 melanoma): 4490 nM
- TGI (K-562 leukemia): > 100000 nM
- TGI (HCT-15 colon): 2180 nM
- TGI (KM12 colon): 2780 nM
- TGI (HOP-92 NSCLC): 4880 nM
- TGI (NCI-H23 lung): 4260 nM
- TGI (HCC-2998 colon): 2650 nM
- TGI (SK-OV-3 ovarian): 2880 nM
- TGI (SNB-75 CNS): 5250 nM
- TGI (SW-620 colon): 3460 nM
- TGI (NCI/ADR-RES ovarian): 6000 nM
- TGI (HOP-62 NSCLC): 2450 nM
- TGI (SK-MEL-5 melanoma): 2820 nM
- TGI (786-0 renal): 7830 nM
- TGI (UACC-62 melanoma): 2230 nM
- TGI (NCI-H226 lung): 5100 nM
- TGI (MDA-N): 2230 nM
- TGI (MALME-3M melanoma): 4790 nM
- TGI (HT29 colon): 1530 nM
- TGI (EKVX NSCLC): 6220 nM
- TGI (OVCAR-8 ovarian): 6450 nM
- TGI (SR leukemia): > 100000 nM
- TGI (U251 CNS): 1990 nM
- TGI (T-47D breast): 8630 nM
- TGI (RXF 393 renal): 6600 nM
- TGI (NCI-H460 lung): 1610 nM
- TGI (MDA-MB-231 breast): 2640 nM
- TGI (CAKI-1 renal): 11200 nM
- TGI (OVCAR-5 ovarian): 6930 nM
- TGI (PC-3 prostate): 10300 nM
- TGI (HL-60(TB) leukemia): 40400 nM
- TGI (SF-268 CNS): 7910 nM
- TGI (HCT-116 colon): 1820 nM
- TGI (UACC-257 melanoma): 5100 nM
- TGI (SF-295 CNS): 2400 nM
- TGI (IGROV1 ovarian): 4980 nM
- TGI (SK-MEL-28 melanoma): 8400 nM
- TGI (SNB-19 CNS): 7700 nM
- TGI (CCRF-CEM leukemia): > 100000 nM

SMILES: CC(=C(c1ccc(OCCN2CCCCC2)cc1)c1ccc(OCCN2CCCCC2)cc1)c1ccc(Cl)cc1
- GI50 (UO-31 renal): 354 nM
- TGI (UO-31 renal): 681 nM
- GI50 (DU-145 prostate): 458 nM
- TGI (DU-145 prostate): 870 nM
- GI50 (OVCAR-4 ovarian): 460 nM
- TGI (OVCAR-4 ovarian): 893 nM
- GI50 (A498 renal): 386 nM
- TGI (A498 renal): 755 nM
- GI50 (MCF7 breast): 297 nM
- TGI (MCF7 breast): 682 nM
- GI50 (COLO 205 colon): 460 nM
- TGI (COLO 205 colon): 921 nM
- GI50 (BT-549 breast): 414 nM
- TGI (BT-549 breast): 787 nM
- GI50 (HS 578T breast): 458 nM
- TGI (HS 578T breast): 1040 nM
- GI50 (TK-10 renal): 384 nM
- TGI (TK-10 renal): 755 nM
- GI50 (RPMI-8226 leukemia): 530 nM
- TGI (RPMI-8226 leukemia): 1190 nM
- GI50 (SN12C renal): 414 nM
- TGI (SN12C renal): 785 nM
- GI50 (MOLT-4 leukemia): 449 nM
- TGI (MOLT-4 leukemia): 982 nM
- GI50 (MDA-MB-435): 416 nM
- TGI (MDA-MB-435): 777 nM
- GI50 (NCI-H522 lung): 411 nM
- TGI (NCI-H522 lung): 872 nM
- GI50 (A549 NSCLC): 457 nM
- TGI (A549 NSCLC): 914 nM
- GI50 (SF-539 CNS): 393 nM
- TGI (SF-539 CNS): 738 nM
- GI50 (LOX IMVI melanoma): 406 nM
- TGI (LOX IMVI melanoma): 754 nM
- GI50 (ACHN renal): 434 nM
- TGI (ACHN renal): 779 nM
- GI50 (SK-MEL-2 melanoma): 459 nM
- TGI (SK-MEL-2 melanoma): 909 nM
- GI50 (K-562 leukemia): 77.5 nM
- TGI (K-562 leukemia): 362 nM
- GI50 (HCT-15 colon): 340 nM
- TGI (HCT-15 colon): 685 nM
- GI50 (KM12 colon): 454 nM
- TGI (KM12 colon): 887 nM
- GI50 (HOP-92 NSCLC): 343 nM
- TGI (HOP-92 NSCLC): 711 nM
- GI50 (NCI-H23 lung): 466 nM
- TGI (NCI-H23 lung): 913 nM
- GI50 (HCC-2998 colon): 396 nM
- TGI (HCC-2998 colon): 755 nM
- GI50 (SK-OV-3 ovarian): 428 nM
- TGI (SK-OV-3 ovarian): 806 nM
- GI50 (SNB-75 CNS): 325 nM
- TGI (SNB-75 CNS): 673 nM
- GI50 (SW-620 colon): 408 nM
- TGI (SW-620 colon): 794 nM
- GI50 (NCI/ADR-RES ovarian): 446 nM
- TGI (NCI/ADR-RES ovarian): 858 nM
- GI50 (M14 melanoma): 438 nM
- TGI (M14 melanoma): 837 nM
- GI50 (HOP-62 NSCLC): 439 nM
- TGI (HOP-62 NSCLC): 888 nM
- GI50 (SK-MEL-5 melanoma): 443 nM
- TGI (SK-MEL-5 melanoma): 793 nM
- GI50 (786-0 renal): 419 nM
- TGI (786-0 renal): 805 nM
- GI50 (UACC-62 melanoma): 442 nM
- TGI (UACC-62 melanoma): 845 nM
- GI50 (NCI-H226 lung): 457 nM
- TGI (NCI-H226 lung): 962 nM
- GI50 (MALME-3M melanoma): 419 nM
- TGI (MALME-3M melanoma): 798 nM
- GI50 (HT29 colon): 350 nM
- TGI (HT29 colon): 779 nM
- GI50 (EKVX NSCLC): 433 nM
- TGI (EKVX NSCLC): 857 nM
- GI50 (OVCAR-3 ovarian): 415 nM
- TGI (OVCAR-3 ovarian): 783 nM
- GI50 (OVCAR-8 ovarian): 484 nM
- TGI (OVCAR-8 ovarian): 1040 nM
- GI50 (SR leukemia): 195 nM
- TGI (SR leukemia): 707 nM
- GI50 (U251 CNS): 387 nM
- TGI (U251 CNS): 747 nM
- GI50 (T-47D breast): 430 nM
- TGI (T-47D breast): 1040 nM
- GI50 (RXF 393 renal): 375 nM
- TGI (RXF 393 renal): 743 nM
- GI50 (NCI-H460 lung): 452 nM
- TGI (NCI-H460 lung): 844 nM
- GI50 (MDA-MB-231 breast): 425 nM
- TGI (MDA-MB-231 breast): 806 nM
- GI50 (CAKI-1 renal): 397 nM
- TGI (CAKI-1 renal): 740 nM
- GI50 (OVCAR-5 ovarian): 417 nM
- TGI (OVCAR-5 ovarian): 771 nM
- GI50 (PC-3 prostate): 412 nM
- TGI (PC-3 prostate): 825 nM
- GI50 (HL-60(TB) leukemia): 452 nM
- TGI (HL-60(TB) leukemia): 957 nM
- GI50 (SF-268 CNS): 436 nM
- TGI (SF-268 CNS): 873 nM
- GI50 (HCT-116 colon): 390 nM
- TGI (HCT-116 colon): 743 nM
- GI50 (UACC-257 melanoma): 454 nM
- TGI (UACC-257 melanoma): 884 nM
- GI50 (SF-295 CNS): 449 nM
- TGI (SF-295 CNS): 868 nM
- GI50 (IGROV1 ovarian): 432 nM
- TGI (IGROV1 ovarian): 820 nM
- GI50 (SK-MEL-28 melanoma): 422 nM
- TGI (SK-MEL-28 melanoma): 773 nM
- GI50 (SNB-19 CNS): 438 nM
- TGI (SNB-19 CNS): 810 nM
- GI50 (CCRF-CEM leukemia): 493 nM
- TGI (CCRF-CEM leukemia): 1560 nM
